Laboratory results from ChEMBL document CHEMBL4196079, “Molecular interaction of novel benzothiazolyl triazolium analogues with calf thymus DNA and HSA-their biological investigation as potent antimicrobial agents” (Eur J Med Chem, 2018).
In brackets after ≈: the same amount, converted by molar mass.

Each molecule was assayed on Pichia norvegensis (assay: Antifungal activity against Candida mycoderma after 24 hrs by NCCLS micro broth dilution method). Settings: not given.
Assay type: functional
Fc1ccc(Cn2cc(COCc3c(-c4ccccc4)nc4sc5ccccc5n34)nn2)cc1 showed an MIC of 32 µg/mL (≈ 68.2 µM). For Clc1ccccc1Cn1cc(COCc2c(-c3ccccc3)nc3sc4ccccc4n23)nn1, the MIC was 8 µg/mL (≈ 16.5 µM). Molecule Clc1ccc(Cn2cc(COCc3c(-c4ccccc4)nc4sc5ccccc5n34)nn2)c(Cl)c1 has an MIC of 32 µg/mL (≈ 61.5 µM). Work on Clc1ccc(Cn2cc(COCc3c(-c4ccccc4)nc4sc5ccccc5n34)nn2)cc1Cl yielded an MIC of 32 µg/mL (≈ 61.5 µM).

Each molecule was assayed on Micrococcus luteus (assay: Antibacterial activity against Micrococcus luteus ATCC 4698 after 24 hrs by micro broth dilution method). Settings: ATCC 4698, 24 h.
Assay type: functional
Fc1ccc(Cn2cc(COCc3c(-c4ccccc4)nc4sc5ccccc5n34)nn2)cc1 showed an MIC of 128 µg/mL (≈ 273 µM). Molecule Clc1ccccc1Cn1cc(COCc2c(-c3ccccc3)nc3sc4ccccc4n23)nn1 has an MIC of 128 µg/mL (≈ 263 µM). Clc1ccc(Cn2cc(COCc3c(-c4ccccc4)nc4sc5ccccc5n34)nn2)c(Cl)c1 gave an MIC of 32 µg/mL (≈ 61.5 µM). In the case of Clc1ccc(Cn2cc(COCc3c(-c4ccccc4)nc4sc5ccccc5n34)nn2)cc1Cl, the MIC is reported as 32 µg/mL (≈ 61.5 µM).

Each molecule was assayed on Escherichia coli (assay: Antibacterial activity against Escherichia coli DH52 after 24 hrs by NCCLS micro broth dilution method). Settings: DH52, 24 h.
Assay type: functional
Fc1ccc(Cn2cc(COCc3c(-c4ccccc4)nc4sc5ccccc5n34)nn2)cc1 showed an MIC of 128 µg/mL (≈ 273 µM). Clc1ccccc1Cn1cc(COCc2c(-c3ccccc3)nc3sc4ccccc4n23)nn1 showed an MIC of 128 µg/mL (≈ 263 µM). With Clc1ccc(Cn2cc(COCc3c(-c4ccccc4)nc4sc5ccccc5n34)nn2)c(Cl)c1 the MIC was 16 µg/mL (≈ 30.7 µM). Molecule Clc1ccc(Cn2cc(COCc3c(-c4ccccc4)nc4sc5ccccc5n34)nn2)cc1Cl has an MIC of 64 µg/mL (≈ 123 µM).

The molecules below were run on Candida albicans (assay: Antifungal activity against Candida albicans ATCC 76615 after 24 hrs by NCCLS micro broth dilution method). Settings: ATCC 76615, 24 h.
Assay type: functional
Work on Fc1ccc(Cn2cc(COCc3c(-c4ccccc4)nc4sc5ccccc5n34)nn2)cc1 yielded an MIC of 32 µg/mL (≈ 68.2 µM). For Clc1ccccc1Cn1cc(COCc2c(-c3ccccc3)nc3sc4ccccc4n23)nn1, the MIC was 16 µg/mL (≈ 32.9 µM). Clc1ccc(Cn2cc(COCc3c(-c4ccccc4)nc4sc5ccccc5n34)nn2)c(Cl)c1 gave an MIC of 32 µg/mL (≈ 61.5 µM). Clc1ccc(Cn2cc(COCc3c(-c4ccccc4)nc4sc5ccccc5n34)nn2)cc1Cl showed an MIC of 32 µg/mL (≈ 61.5 µM).

Each molecule was assayed on Bacillus subtilis (assay: Antibacterial activity against Bacillus subtilis ATCC 21216 after 24 hrs by NCCLS micro broth dilution method). Settings: ATCC 21216, 24 h.
Assay type: functional
Fc1ccc(Cn2cc(COCc3c(-c4ccccc4)nc4sc5ccccc5n34)nn2)cc1 gave an MIC of 128 µg/mL (≈ 273 µM). Work on Clc1ccccc1Cn1cc(COCc2c(-c3ccccc3)nc3sc4ccccc4n23)nn1 yielded an MIC of 128 µg/mL (≈ 263 µM). For Clc1ccc(Cn2cc(COCc3c(-c4ccccc4)nc4sc5ccccc5n34)nn2)c(Cl)c1, the MIC was 64 µg/mL (≈ 123 µM). Clc1ccc(Cn2cc(COCc3c(-c4ccccc4)nc4sc5ccccc5n34)nn2)cc1Cl gave an MIC of 16 µg/mL (≈ 30.7 µM).

These molecules were tested on Bacillus (assay: Antibacterial activity against Bacillus proteus ATCC 13315 after 24 hrs by NCCLS micro broth dilution method). Settings: ATCC 13315, 24 h.
Assay type: functional
For Fc1ccc(Cn2cc(COCc3c(-c4ccccc4)nc4sc5ccccc5n34)nn2)cc1, the MIC was 128 µg/mL (≈ 273 µM). Clc1ccccc1Cn1cc(COCc2c(-c3ccccc3)nc3sc4ccccc4n23)nn1 showed an MIC of 64 µg/mL (≈ 132 µM). Molecule Clc1ccc(Cn2cc(COCc3c(-c4ccccc4)nc4sc5ccccc5n34)nn2)c(Cl)c1 has an MIC of 32 µg/mL (≈ 61.5 µM). Clc1ccc(Cn2cc(COCc3c(-c4ccccc4)nc4sc5ccccc5n34)nn2)cc1Cl showed an MIC of 8 µg/mL (≈ 15.4 µM).

What follows are molecules tested on Cyberlindnera jadinii (assay: Antifungal activity against Candida utilis after 24 hrs by NCCLS micro broth dilution method). Settings: Williopsis jadinii.
Assay type: functional
Fc1ccc(Cn2cc(COCc3c(-c4ccccc4)nc4sc5ccccc5n34)nn2)cc1 gave an MIC of 16 µg/mL (≈ 34.1 µM). Clc1ccccc1Cn1cc(COCc2c(-c3ccccc3)nc3sc4ccccc4n23)nn1 showed an MIC of 64 µg/mL (≈ 132 µM). Clc1ccc(Cn2cc(COCc3c(-c4ccccc4)nc4sc5ccccc5n34)nn2)c(Cl)c1 was tested, and the MIC was 32 µg/mL (≈ 61.5 µM). Work on Clc1ccc(Cn2cc(COCc3c(-c4ccccc4)nc4sc5ccccc5n34)nn2)cc1Cl yielded an MIC of 64 µg/mL (≈ 123 µM).

What follows are molecules tested on Shigella dysenteriae (assay: Antibacterial activity against Shigella dysenteriae after 24 hrs by NCCLS micro broth dilution method). Settings: not given.
Assay type: functional
Fc1ccc(Cn2cc(COCc3c(-c4ccccc4)nc4sc5ccccc5n34)nn2)cc1 gave an MIC of 128 µg/mL (≈ 273 µM). For Clc1ccccc1Cn1cc(COCc2c(-c3ccccc3)nc3sc4ccccc4n23)nn1, the MIC was 64 µg/mL (≈ 132 µM). Clc1ccc(Cn2cc(COCc3c(-c4ccccc4)nc4sc5ccccc5n34)nn2)c(Cl)c1 gave an MIC of 64 µg/mL (≈ 123 µM). For Clc1ccc(Cn2cc(COCc3c(-c4ccccc4)nc4sc5ccccc5n34)nn2)cc1Cl, the MIC was 32 µg/mL (≈ 61.5 µM).

Each molecule was assayed on Saccharomyces cerevisiae (assay: Antifungal activity against Saccharomyces cerevisiae after 24 hrs by NCCLS micro broth dilution method). Settings: not given.
Assay type: functional
With Fc1ccc(Cn2cc(COCc3c(-c4ccccc4)nc4sc5ccccc5n34)nn2)cc1 the MIC was 64 µg/mL (≈ 136 µM). In the case of Clc1ccccc1Cn1cc(COCc2c(-c3ccccc3)nc3sc4ccccc4n23)nn1, the MIC is reported as 64 µg/mL (≈ 132 µM). Work on Clc1ccc(Cn2cc(COCc3c(-c4ccccc4)nc4sc5ccccc5n34)nn2)c(Cl)c1 yielded an MIC of 64 µg/mL (≈ 123 µM). Work on Clc1ccc(Cn2cc(COCc3c(-c4ccccc4)nc4sc5ccccc5n34)nn2)cc1Cl yielded an MIC of 64 µg/mL (≈ 123 µM).

Each molecule was assayed on Staphylococcus aureus (assay: Antibacterial activity against methicillin-resistant Staphylococcus aureus N315 after 24 hrs by NCCLS micro broth dilution method). Settings: N315, 24 h.
Assay type: functional
Molecule Fc1ccc(Cn2cc(COCc3c(-c4ccccc4)nc4sc5ccccc5n34)nn2)cc1 has an MIC of 64 µg/mL (≈ 136 µM). For Clc1ccccc1Cn1cc(COCc2c(-c3ccccc3)nc3sc4ccccc4n23)nn1, the MIC was 64 µg/mL (≈ 132 µM). With Clc1ccc(Cn2cc(COCc3c(-c4ccccc4)nc4sc5ccccc5n34)nn2)c(Cl)c1 the MIC was 32 µg/mL (≈ 61.5 µM). In the case of Clc1ccc(Cn2cc(COCc3c(-c4ccccc4)nc4sc5ccccc5n34)nn2)cc1Cl, the MIC is reported as 16 µg/mL (≈ 30.7 µM).

These molecules were tested on Salmonella typhi (assay: Antibacterial activity against Salmonella typhi after 24 hrs by NCCLS micro broth dilution method). Settings: Salmonella enterica.
Assay type: functional, Salmonella enterica subsp. enterica serovar Typhi
Work on Fc1ccc(Cn2cc(COCc3c(-c4ccccc4)nc4sc5ccccc5n34)nn2)cc1 yielded an MIC of 128 µg/mL (≈ 273 µM). Clc1ccccc1Cn1cc(COCc2c(-c3ccccc3)nc3sc4ccccc4n23)nn1 was tested, and the MIC was 64 µg/mL (≈ 132 µM). Clc1ccc(Cn2cc(COCc3c(-c4ccccc4)nc4sc5ccccc5n34)nn2)c(Cl)c1 was tested, and the MIC was 64 µg/mL (≈ 123 µM). For Clc1ccc(Cn2cc(COCc3c(-c4ccccc4)nc4sc5ccccc5n34)nn2)cc1Cl, the MIC was 64 µg/mL (≈ 123 µM).

The molecules below were run on Aspergillus flavus (assay: Antifungal activity against Aspergillus flavus after 24 hrs by NCCLS micro broth dilution method). Settings: not given.
Assay type: functional
Fc1ccc(Cn2cc(COCc3c(-c4ccccc4)nc4sc5ccccc5n34)nn2)cc1 was tested, and the MIC was 256 µg/mL (≈ 545 µM). With Clc1ccccc1Cn1cc(COCc2c(-c3ccccc3)nc3sc4ccccc4n23)nn1 the MIC was 128 µg/mL (≈ 263 µM). In the case of Clc1ccc(Cn2cc(COCc3c(-c4ccccc4)nc4sc5ccccc5n34)nn2)c(Cl)c1, the MIC is reported as 256 µg/mL (≈ 492 µM). With Clc1ccc(Cn2cc(COCc3c(-c4ccccc4)nc4sc5ccccc5n34)nn2)cc1Cl the MIC was 256 µg/mL (≈ 492 µM).

The molecules below were run on Staphylococcus aureus (assay: Antibacterial activity against Staphylococcus aureus ATCC 25923 after 24 hrs by NCCLS micro broth dilution method). Settings: ATCC 25923, 24 h.
Assay type: functional
With Fc1ccc(Cn2cc(COCc3c(-c4ccccc4)nc4sc5ccccc5n34)nn2)cc1 the MIC was 128 µg/mL (≈ 273 µM). Clc1ccccc1Cn1cc(COCc2c(-c3ccccc3)nc3sc4ccccc4n23)nn1 gave an MIC of 64 µg/mL (≈ 132 µM). Clc1ccc(Cn2cc(COCc3c(-c4ccccc4)nc4sc5ccccc5n34)nn2)c(Cl)c1 was tested, and the MIC was 64 µg/mL (≈ 123 µM). Clc1ccc(Cn2cc(COCc3c(-c4ccccc4)nc4sc5ccccc5n34)nn2)cc1Cl showed an MIC of 64 µg/mL (≈ 123 µM).

Each molecule was assayed on Escherichia coli (assay: Antibacterial activity against Escherichia coli JM109 after 24 hrs by NCCLS micro broth dilution method). Settings: JM109, 24 h.
Assay type: functional
Fc1ccc(Cn2cc(COCc3c(-c4ccccc4)nc4sc5ccccc5n34)nn2)cc1 gave an MIC of 128 µg/mL (≈ 273 µM). Work on Clc1ccccc1Cn1cc(COCc2c(-c3ccccc3)nc3sc4ccccc4n23)nn1 yielded an MIC of 8 µg/mL (≈ 16.5 µM). Clc1ccc(Cn2cc(COCc3c(-c4ccccc4)nc4sc5ccccc5n34)nn2)c(Cl)c1 gave an MIC of 64 µg/mL (≈ 123 µM). With Clc1ccc(Cn2cc(COCc3c(-c4ccccc4)nc4sc5ccccc5n34)nn2)cc1Cl the MIC was 64 µg/mL (≈ 123 µM).

What follows are molecules tested on Pseudomonas aeruginosa (assay: Antibacterial activity against Pseudomonas aeruginosa ATCC 27853 after 24 hrs by NCCLS micro broth dilution method). Settings: ATCC 27853, 24 h.
Assay type: functional
Work on Fc1ccc(Cn2cc(COCc3c(-c4ccccc4)nc4sc5ccccc5n34)nn2)cc1 yielded an MIC of 128 µg/mL (≈ 273 µM). Clc1ccccc1Cn1cc(COCc2c(-c3ccccc3)nc3sc4ccccc4n23)nn1 showed an MIC of 128 µg/mL (≈ 263 µM). With Clc1ccc(Cn2cc(COCc3c(-c4ccccc4)nc4sc5ccccc5n34)nn2)c(Cl)c1 the MIC was 8 µg/mL (≈ 15.4 µM). For Clc1ccc(Cn2cc(COCc3c(-c4ccccc4)nc4sc5ccccc5n34)nn2)cc1Cl, the MIC was 16 µg/mL (≈ 30.7 µM).
